# Test results: ChEMBL document CHEMBL6127118, “Identification of Oral Bioavailable Coumarin Derivatives as Potential AR Antagonists Targeting Prostate Cancer” (J Med Chem, 2024)
# Legend:
# Androgen receptor [1] = target: T1, Androgen receptor (Homo sapiens, UniProt P10275); assay: Antagonist activity at DHT-induced Androgen receptor in human LNCaP cells transfected with ARR2PB-eGFP incubated for 3 days; type: cell-based
# T1 sequence (P10275 whole entry): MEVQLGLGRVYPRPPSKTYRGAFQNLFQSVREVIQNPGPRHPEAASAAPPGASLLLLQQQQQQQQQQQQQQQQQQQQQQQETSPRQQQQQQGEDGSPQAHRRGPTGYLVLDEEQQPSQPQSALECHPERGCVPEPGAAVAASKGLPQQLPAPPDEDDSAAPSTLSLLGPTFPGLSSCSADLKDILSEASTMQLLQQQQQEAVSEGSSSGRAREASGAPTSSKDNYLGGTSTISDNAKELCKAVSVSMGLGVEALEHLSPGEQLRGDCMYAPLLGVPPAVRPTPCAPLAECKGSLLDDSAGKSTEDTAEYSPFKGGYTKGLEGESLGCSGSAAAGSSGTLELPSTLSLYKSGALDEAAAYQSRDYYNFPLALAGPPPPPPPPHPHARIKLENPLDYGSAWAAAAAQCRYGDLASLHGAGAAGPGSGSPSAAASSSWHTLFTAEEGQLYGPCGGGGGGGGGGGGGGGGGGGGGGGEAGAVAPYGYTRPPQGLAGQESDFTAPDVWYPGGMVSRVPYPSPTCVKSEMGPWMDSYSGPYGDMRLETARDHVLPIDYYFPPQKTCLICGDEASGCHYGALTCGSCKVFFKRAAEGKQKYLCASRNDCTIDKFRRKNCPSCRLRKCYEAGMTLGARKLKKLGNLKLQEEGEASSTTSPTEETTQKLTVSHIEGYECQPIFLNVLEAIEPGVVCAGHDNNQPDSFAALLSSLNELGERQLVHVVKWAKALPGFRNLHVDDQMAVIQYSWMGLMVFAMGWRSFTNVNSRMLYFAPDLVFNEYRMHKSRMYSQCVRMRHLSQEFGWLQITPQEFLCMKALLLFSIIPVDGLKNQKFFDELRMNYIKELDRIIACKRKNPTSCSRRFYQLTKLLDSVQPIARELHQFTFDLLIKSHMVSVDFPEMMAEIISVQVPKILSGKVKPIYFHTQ
# [2] = Toxicity in CB17 SCID mouse model xenografted with human LNCaP cells assessed as body weight loss at 60 mg/kg, po bid for 32 days; type: organism-based; settings: in vivo, 768 h, time 32 day
# NIH3T3 = assay: Antiproliferative activity against mouse NIH3T3 cells incubated for 72 hrs by MTT assay; type: toxicity, cell-based; settings: nih3t3, 72 h
# [3] = Toxicity in CB17 SCID mouse model xenografted with human LNCaP cells assessed as signs of toxicity at 60 mg/kg, po bid for 32 days; type: organism-based; settings: in vivo, 768 h, time 32 day
# Androgen receptor [4] = target: Androgen receptor (Homo sapiens, UniProt P10275, W742C); assay: Antagonist activity at DHT-induced Androgen receptor W741C mutant in human PC-3 cells transfected with ARR2PB-Luc by Dual-Luciferase Reporter assay; type: cell-based
# [5] = AUC (0 to t) in Sprague-Dawley rat at 5 mg/kg, po; type: ADME, organism-based; settings: in vivo
# [6] = Half life in Sprague-Dawley rat at 1 mg/kg, iv; type: ADME, organism-based; settings: in vivo
# [7] = Apparent volume of distribution in Sprague-Dawley rat at 5 mg/kg, po; type: ADME, organism-based; settings: in vivo
# [8] = Cmax in Sprague-Dawley rat at 1 mg/kg, iv; type: ADME, organism-based; settings: in vivo
# [9] = Toxicity in CB17 SCID mouse model xenografted with human LNCaP cells assessed as drug tolerance at 60 mg/kg, po bid for 32 days; type: organism-based; settings: in vivo, 768 h, time 32 day
# [10] = Clearance in Sprague-Dawley rat at 5 mg/kg, po; type: ADME, organism-based; settings: in vivo
# [11] = Cmax in Sprague-Dawley rat at 5 mg/kg, po; type: ADME, organism-based; settings: in vivo
# GES1 = assay: (§1) Antiproliferative activity against human GES1 cells incubated for 72 hrs by MTT assay; type: toxicity, cell-based; settings: ges1, 72 h, time 72 hrs
# [12] = AUC (0 to t) in Sprague-Dawley rat at 1 mg/kg, iv; type: ADME, organism-based; settings: in vivo
# [13] = Apparent volume of distribution in Sprague-Dawley rat at 1 mg/kg, iv; type: ADME, organism-based; settings: in vivo, read-out: Vz
# [14] = Clearance in Sprague-Dawley rat at 1 mg/kg, iv; type: ADME, organism-based; settings: in vivo
# Androgen receptor [15] = target: Androgen receptor (Homo sapiens, UniProt P10275, F877L/T878A); assay: Antagonist activity at DHT-induced Androgen receptor F876L/[…] mutant in human PC-3 cells transfected with ARR2PB-Luc by Dual-Luciferase Reporter assay; type: cell-based
# [16] = Half life in Sprague-Dawley rat at 5 mg/kg, po; type: ADME, organism-based; settings: in vivo
# [17] = Oral bioavailability in Sprague-Dawley rat at 5 mg/kg; type: ADME, organism-based; settings: in vivo
# [18] = Antiproliferative activity against human Chang liver cells incubated for 72 hrs by MTT assay; type: toxicity, cell-based
# [19] = Inhibition of DHT-induced secreted PSA production in human LNCaP cells
# LNCaP = assay: Antiproliferative activity against androgen dependent-human LNCaP cells incubated for 72 hrs by MTT assay
# [20] = as §1; type: toxicity, cell-based; settings: GES1 cells
# CWR22R = assay: Antiproliferative activity against androgen independent-human 22Rv1 cells incubated for 72 hrs by MTT assay; settings: 22Rv1, 72 h
# PC-3 = assay: Antiproliferative activity against androgen independent-human PC-3 cells incubated for 72 hrs by MTT assay; settings: PC-3, 72 h
# [21] = target: T2, Mineralocorticoid receptor (Homo sapiens, UniProt P08235); assay: Antagonist activity at aldosterone-induced Mineralocorticoid receptor (unknown origin) transfected in HEK293T cells by Dual-Luciferase Reporter assay
# T2 sequence (P08235 whole entry): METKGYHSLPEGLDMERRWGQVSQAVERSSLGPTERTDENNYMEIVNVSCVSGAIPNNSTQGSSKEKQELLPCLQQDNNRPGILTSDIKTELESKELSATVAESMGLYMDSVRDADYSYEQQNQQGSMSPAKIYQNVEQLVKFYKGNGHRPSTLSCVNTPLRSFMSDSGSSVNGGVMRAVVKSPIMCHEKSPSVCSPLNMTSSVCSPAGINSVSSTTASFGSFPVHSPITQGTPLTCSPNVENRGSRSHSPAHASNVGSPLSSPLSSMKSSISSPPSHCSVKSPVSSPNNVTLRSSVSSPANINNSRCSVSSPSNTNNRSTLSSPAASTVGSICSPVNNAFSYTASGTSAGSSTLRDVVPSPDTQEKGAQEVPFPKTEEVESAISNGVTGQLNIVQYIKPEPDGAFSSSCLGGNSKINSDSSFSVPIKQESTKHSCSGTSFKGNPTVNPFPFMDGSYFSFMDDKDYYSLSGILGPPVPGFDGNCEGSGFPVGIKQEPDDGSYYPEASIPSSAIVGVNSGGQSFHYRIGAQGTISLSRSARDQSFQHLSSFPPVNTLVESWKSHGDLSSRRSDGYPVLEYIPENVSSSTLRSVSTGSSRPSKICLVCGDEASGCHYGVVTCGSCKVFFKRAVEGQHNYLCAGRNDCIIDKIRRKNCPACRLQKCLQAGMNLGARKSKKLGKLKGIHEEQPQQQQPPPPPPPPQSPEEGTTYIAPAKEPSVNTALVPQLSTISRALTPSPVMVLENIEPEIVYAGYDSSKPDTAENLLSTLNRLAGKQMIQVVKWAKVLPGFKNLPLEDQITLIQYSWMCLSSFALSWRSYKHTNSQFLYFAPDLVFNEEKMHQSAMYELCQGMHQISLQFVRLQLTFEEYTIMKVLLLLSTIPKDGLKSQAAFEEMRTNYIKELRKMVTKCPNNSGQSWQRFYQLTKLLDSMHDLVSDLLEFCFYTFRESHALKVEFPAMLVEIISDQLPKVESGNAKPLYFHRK
# DU-145 = assay: Antiproliferative activity against androgen independent-human DU-145 cells incubated for 72 hrs by MTT assay; settings: DU-145, 72 h
# LNCaP C4-2B = assay: Antiproliferative activity against androgen independent-human LNCaP C4-2B cells incubated for 72 hrs by MTT assay
# Sequence of Androgen receptor (Homo sapiens, UniProt P10275, F877L/T878A) (P10275 whole entry F877L/T878A): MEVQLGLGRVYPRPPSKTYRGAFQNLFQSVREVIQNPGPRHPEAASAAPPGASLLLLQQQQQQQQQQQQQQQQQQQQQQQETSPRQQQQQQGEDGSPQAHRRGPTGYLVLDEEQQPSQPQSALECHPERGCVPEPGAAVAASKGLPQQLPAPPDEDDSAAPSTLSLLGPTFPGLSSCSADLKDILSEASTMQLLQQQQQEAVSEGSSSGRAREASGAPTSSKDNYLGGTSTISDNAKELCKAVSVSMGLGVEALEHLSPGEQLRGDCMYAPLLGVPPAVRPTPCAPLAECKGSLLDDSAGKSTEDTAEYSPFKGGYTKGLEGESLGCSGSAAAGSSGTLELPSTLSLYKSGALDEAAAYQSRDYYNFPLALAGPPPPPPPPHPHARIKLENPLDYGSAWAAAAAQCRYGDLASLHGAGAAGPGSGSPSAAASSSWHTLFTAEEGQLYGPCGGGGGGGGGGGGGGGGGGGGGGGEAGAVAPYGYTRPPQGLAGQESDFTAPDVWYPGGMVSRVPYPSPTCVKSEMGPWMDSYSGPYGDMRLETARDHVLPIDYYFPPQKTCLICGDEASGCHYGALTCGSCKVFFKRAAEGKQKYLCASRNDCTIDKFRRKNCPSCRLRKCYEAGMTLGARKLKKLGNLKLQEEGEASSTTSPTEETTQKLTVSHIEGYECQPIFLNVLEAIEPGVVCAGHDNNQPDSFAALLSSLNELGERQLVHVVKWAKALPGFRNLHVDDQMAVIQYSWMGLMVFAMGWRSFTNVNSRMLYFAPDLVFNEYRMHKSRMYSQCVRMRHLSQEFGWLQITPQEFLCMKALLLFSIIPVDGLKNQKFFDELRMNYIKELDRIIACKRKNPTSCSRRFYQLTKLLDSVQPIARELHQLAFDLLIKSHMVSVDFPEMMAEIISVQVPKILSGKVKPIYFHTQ
# Sequence of Androgen receptor (Homo sapiens, UniProt P10275, W742C) (P10275 whole entry W742C): as the sequence (P10275 whole entry F877L/T878A) above, with W742C, L877F, A878T counted along it
compound,measurement,setting,value
O=c1cc(C(F)(F)F)c2ccc(NCc3ccc(O)cc3)cc2o1,IC50,Androgen receptor [1],640 nM
CN(Cc1ccc(Br)cc1)c1ccc2c(C(F)(F)F)cc(=O)oc2c1,IC50,Androgen receptor [1],97 nM
CN(Cc1ccc(F)cc1)c1ccc2c(C(F)(F)F)cc(=O)oc2c1,Activity,[2],Non-Toxic
same,Activity,NIH3T3,Non-Toxic
same,Activity,[3],Non-Toxic
same,IC50,Androgen receptor [4],160 nM
same,AUC(0-t),[5],1410 ng·h/mL
same,half-life,[6],0.5 h
same,Vz,[7],24.6 L/kg
same,Cmax,[8],1060 ng/mL
same,Activity,[9],Non-Toxic
same,CL/F,[10],58.5 mL/min/kg
same,Cmax,[11],353 ng/mL
same,Activity,GES1,Non-Toxic
same,AUC(0-t),[12],426 ng·h/mL
same,Vd,[13],1.81 L/kg
same,clearance,[14],41 mL/min/kg
same,IC50,Androgen receptor [15],170 nM
same,half-life,[16],4.82 h
same,IC50,Androgen receptor [1],51 nM
same,bioavailability,[17],66.2%
same,Activity,[18],Non-Toxic
CN(Cc1ccc(Cl)cc1)c1ccc2c(C(F)(F)F)cc(=O)oc2c1,Activity,NIH3T3,Non-Toxic
same,AUC(0-t),[5],724 ng·h/mL
same,half-life,[6],19.8 h
same,Vz,[7],112.33 L/kg
same,Cmax,[8],809 ng/mL
same,CL/F,[10],68 mL/min/kg
same,Cmax,[11],139 ng/mL
same,Activity,GES1,Non-Toxic
same,AUC(0-t),[12],750 ng·h/mL
same,Vd,[13],27.8 L/kg
same,clearance,[14],16.3 mL/min/kg
same,half-life,[16],11.8 h
same,bioavailability,[17],19.3%
same,Activity,[18],Non-Toxic
O=c1cc(C(F)(F)F)c2ccc(NCc3ccc(OC(F)F)cc3)cc2o1,IC50,Androgen receptor [1],68 nM
O=c1cc(C(F)(F)F)c2cc(N3CCCC3)c(OCc3ccc(Br)cc3)cc2o1,IC50,Androgen receptor [1],> 10000 nM
O=c1cc(C(F)(F)F)c2ccc(NCc3ccc(CO)cc3)cc2o1,IC50,Androgen receptor [1],92 nM
O=c1cc(C(F)(F)F)c2ccc(NCc3ccc(Br)cc3)cc2o1,IC50,Androgen receptor [1],42 nM
O=C(Nc1ccc2c(C(F)(F)F)cc(=O)oc2c1)c1ccc(Br)cc1,IC50,Androgen receptor [1],> 10000 nM
O=c1cc(C(F)(F)F)c2ccc(NCc3ccc(Br)c(F)c3)cc2o1,IC50,Androgen receptor [1],69 nM
O=c1cc(C(F)(F)F)c2cc(N(CC(F)(F)F)CC(F)(F)F)c(OCc3ccc(Br)cc3)cc2o1,IC50,Androgen receptor [1],> 10000 nM
O=c1cc(C(F)(F)F)c2cc([N+](=O)[O-])c(OCc3ccc(Br)cc3)cc2o1,IC50,Androgen receptor [1],> 10000 nM
CCN(Cc1ccc(Cl)cc1)c1ccc2c(C(F)(F)F)cc(=O)oc2c1,IC50,Androgen receptor [1],78 nM
CCN(Cc1cc(F)ccc1F)c1ccc2c(C(F)(F)F)cc(=O)oc2c1,IC50,Androgen receptor [1],430 nM
CN(Cc1cc(F)ccc1F)c1ccc2c(C(F)(F)F)cc(=O)oc2c1,IC50,Androgen receptor [1],170 nM
O=c1cc(C(F)(F)F)c2ccc(NCc3cccc(Br)c3)cc2o1,IC50,Androgen receptor [1],110 nM
CNC(=O)c1ccc(N2C(=S)N(c3ccc(C#N)c(C(F)(F)F)c3)C(=O)C2(C)C)cc1F [ENZALUTAMIDE],IC50,[19],420 nM
same,IC50,LNCaP,23300 nM
same,Activity,GES1,Non-Toxic
same,IC50 at 72 h,[20],> 50000 nM
same,IC50,CWR22R,> 50000 nM
same,IC50,PC-3,> 50000 nM
Cc1ccc(CNc2ccc3c(C(F)(F)F)cc(=O)oc3c2)cc1F,IC50,Androgen receptor [1],73 nM
N#Cc1ccc(CNc2ccc3c(C(F)(F)F)cc(=O)oc3c2)cc1,IC50,Androgen receptor [1],890 nM
C[C@]12CCC(=O)C[C@@H]1CC[C@@H]1[C@@H]2CC[C@]2(C)[C@@H](O)CC[C@@H]12 [STANOLONE],IC50,[21],1.24 nM
CCN(Cc1ccc(F)cc1)c1ccc2c(C(F)(F)F)cc(=O)oc2c1,IC50,Androgen receptor [1],83 nM
CCN(CC)c1cc2c(C(F)(F)F)cc(=O)oc2cc1OCc1ccc(Br)cc1,IC50,Androgen receptor [1],> 10000 nM
O=c1cc(C(F)(F)F)c2ccc(NCc3ccc(Cl)cc3)cc2o1,AUC(0-t),[5],103 ng·h/mL
same,half-life,[6],0.27 h
same,Cmax,[8],395 ng/mL
same,Cmax,[11],258 ng/mL
same,AUC(0-t),[12],158 ng·h/mL
same,Vd,[13],2.3 L/kg
same,clearance,[14],97.7 mL/min/kg
same,bioavailability,[17],13%
O=c1cc(C(F)(F)F)c2ccc(OCc3ccc(Br)cc3)cc2o1,IC50,Androgen receptor [1],590 nM
CCN(Cc1ccc(Br)cc1)c1ccc2c(C(F)(F)F)cc(=O)oc2c1,IC50,Androgen receptor [1],100 nM
O=c1cc(C(F)(F)F)c2ccc(NCc3ccc(C(F)(F)F)cc3)cc2o1,IC50,Androgen receptor [1],110 nM
O=c1cc(C(F)(F)F)c2ccc(NCc3ccccc3Br)cc2o1,IC50,Androgen receptor [1],100 nM
O=c1cc(C(F)(F)F)c2ccc(NCc3cc(F)ccc3F)cc2o1,IC50,Androgen receptor [1],34 nM
O=c1cc(C(F)(F)F)c2ccc(NCc3ccc(F)cc3)cc2o1,AUC(0-t),[5],4.09 ng·h/mL
same,IC50,LNCaP,1900 nM
same,half-life,[6],0.21 h
same,IC50,DU-145,6320 nM
same,Cmax,[8],82.1 ng/mL
same,Cmax,[11],10.8 ng/mL
same,IC50 at 72 h,[20],16000 nM
same,AUC(0-t),[12],32.4 ng·h/mL
same,IC50,CWR22R,24200 nM
same,IC50,PC-3,21300 nM
same,IC50,LNCaP C4-2B,4910 nM
same,Vd,[13],9.26 L/kg
same,clearance,[14],507 mL/min/kg
same,IC50,Androgen receptor [1],24 nM
same,bioavailability,[17],2.5%
